Experimental data published in US10800732B2, “Substituted malonamides and their use as antibacterial drugs” (National Taiwan University, priority 2015, dated 2020).
≈ marks a conversion by molar mass, not a printed value. Where two headings read alike, the source gives them in different places.

Legend:
S. aureus NCTC 8325 [1] = test: MIC, S. aureus NCTC 8325 (CLSI broth microdilution / agar dilution); type: cell-based, Staphylococcus aureus
[2] = tested on: clinical isolated VISA strain; test: MIC, VISA; type: cell-based, vancomycin-intermediate Staphylococcus aureus
[3] = tested on: S. epidermidis ATCC 12228; test: MIC, S. epidermidis ATCC 12228; type: cell-based; details: Staphylococcus epidermidis, ATCC12228
MRSA SCCmec VT = test: MIC, MRSA SCCmec VT; type: cell-based, methicillin-resistant Staphylococcus aureus; details: Staphylococcus aureus, MRSA
MRSA ATCC 33592 = test: MIC, MRSA ATCC 33592; type: cell-based, methicillin-resistant Staphylococcus aureus; details: Staphylococcus aureus
VRSA (SJC1200) = test: MIC, VRSA; type: cell-based, vancomycin-resistant Staphylococcus aureus
MRSA (ATCC 43300) [4] = test: MIC, MRSA ATCC 43300; type: cell-based, methicillin-resistant Staphylococcus aureus; details: Staphylococcus aureus
MRSA (ATCC 43300) [5] = test: Minimal biofilm eradication concentration, MRSA in the biofilm; type: cell-based, methicillin-resistant Staphylococcus aureus; details: MRSA (ATCC 43300) in the biofilm
Procedure: A biofilm is composed of attached microorganisms enclosed in an extracellular polymeric substance matrix. Bacteria embedded in the biofilm are protected from antibiotic-mediated killing and the immune response. Reports have shown that biofilm formation is an important factor contributing to S. aureus infections of the skin, lung and indwelling medical devices such as catheters. Thus, the effect of SC5005 on MRSA in a biofilm was assayed.

S. aureus NCTC 8325 [6] = type: cell-based, Staphylococcus aureus; details: sub-inhibitory concentration for 30 consecutive days
MRSA ATCC 49476 = test: MIC, MRSA ATCC 49476; type: cell-based, methicillin-resistant Staphylococcus aureus; details: Staphylococcus aureus
human red blood cells = test: Hemolytic activity; type: cell-based; details: 1 h, concentration up to 128-fold of MIC against S. aureus
Procedure: FIG. 9. Hemolytic activities of SC5005 and SC5035 on human red blood cell. Human red blood cells were incubated with SC5005 (A) and SC5035 (B) for 1 h followed by measuring the absorption of RBC released hemoglobin at 540 nm with microplate reader. Cell treated with 1% triton X-100 serves as positive control (P.C.; 100% hemolysis), and those treated with normal saline serves as negative control (N.C.) Bars represent the mean, and error bars represent the SD (n=3).
As data shown above, SC5005 and SC5035 can kill bacteria via forming pore in bacterial membrane. To see whether the pore-forming activity of these two compounds is specific for bacterial membrane, the hemolytic activities of these two agents on human red blood cells were accessed.

S. aureus NCTC 8325 [7] = test: Intracellular ATP leakage (ATPlite one-step); type: cell-based, Staphylococcus aureus; details: 4×MIC for 15 min
Procedure: FIG. 6. Intracellular ATP leakage of S. aureus treated with SC5005, SC5035 and antibiotics. […] Data was presented as percentage of intracellular ATP level to that of untreated bacteria cells (considered as 100%). Bars represent the mean, and error bars represent the SD (n=3). ***: p-value <0.001
To investigate whether SC5005 and SC5035 also act on bacterial cell membrane, intracellular ATP levels of S. aureus treated with SC5005, SC5035 and antibiotics for 15 min was determined by using ATPlite one-step assay kit.

S. aureus NCTC 8325 [8] = test: Membrane integrity (SYTO 9 / propidium iodide staining); type: cell-based, Staphylococcus aureus; details: 4×MIC (Triton X-100: 10%) for 15 minutes
Excerpt: FIG. 7. Membrane integrity of S. aureus after SC5005, SC5035 and five common antibiotics treatment. […] SYTO 9, a green fluorescence dye, stains chromosome of all bacteria cells, regardless of the membrane integrity. In contrast, propidium iodide (PI), a red fluorescence dye, only stains cell with damaged membrane. Thus, bacteria cell with intact membrane can only be stained by SYTO 9, and cell with perforated membrane will be stained by both fluorescence dyes, showing a yellow color in merged images.
To further validate the action mechanism of SC5005 and SC5035, two fluorescence dyes were used for evaluation of membrane integrity of drug treated S. aureus. The propidium iodide dye only stains cells with perforated membrane, while the SYTO 9 stains all cells in spite of membrane integrity.

Human HT-29 cells = test: LDH release assay (membrane integrity); type: cell-based; details: 1 hour, concentration up to 128-fold of MIC against S. aureus
Procedure: FIG. 10. Membrane integrity of human cells treated with SC5005 and SC5035. Human HT-29 cells were treated with SC5005 and SC5035 for 1 hour followed by the evaluation of membrane integrity with LDH release assay. LDH released from HT-29 cells into culture medium was assessed by using CytoTox 96 NonRadioactive Cytotoxicity Assay. Cell treated with 1% triton X-100 serves as positive control (100% release). Bars represent the mean, and error bars represent the SD (n=3).
To further validate the activity of SC5005 and SC5035 on the membrane of human cells, the integrity of cellular membrane of cells treated with these two compounds was assessed by using LDH release assay. Human HT-29 cells were treated with SC5005 and SC5035 for 1 hour, and then the LDH released from cell into culture medium was assayed.

S. aureus NCTC 8325 [9] = test: Biosynthesis of macromolecules (3H precursor incorporation); type: cell-based, Staphylococcus aureus; details: 4×MIC for 1 h
Procedure: FIG. 5. Effect of SC5005 and SC5035 on the biosynthesis of macromolecules in S. aureus. […] Meanwhile, ofloxacin (1 mg/L), rifampicin (1 mg/L), erythromycin (2 mg/L), and vancomycin (2 mg/L) were used as control inhibitors for the biosynthesis of DNA, RNA, protein and cell wall, respectively. Data are means of three independent experiments. Error bars represent the SD.
To investigate the mode of action of SC5005, a new derivative, SC5035, with better selectivity of antibacterial activity over cytotoxicity was included in the assays. First, the impacts of these two compounds on the biosynthesis of important macromolecules, including DNA, RNA, protein and cell wall, in S. aureus NCTC 8325 were assessed. Bacteria cells were incubated with [^3H]thymidine to assess DNA synthesis, [^3H] uridine to assess RNA synthesis, [^3H] leucine to assess protein synthesis, and [^3H] N-Acetyl-D-glucosamine to assess cell wall synthesis. The ofloxacin, rifampicin, erythromycin and vancomycin were used as control inhibitor for DNA, RNA, protein, and cell wall biosynthesis, respectively. Inhibition of biosynthesis pathway was determined by a reduction in the radial isotope signal of bacteria.

[10] = MRSA (ATCC 43300), read-out: MIC

CN[C@H](CC(C)C)C(=O)N[C@H]1C(=O)N[C@@H](CC(N)=O)C(=O)N[C@H]2C(=O)N[C@H]3C(=O)N[C@H](C(=O)N[C@H](C(=O)O)c4cc(O)cc(O)c4-c4cc3ccc4O)[C@H](O)c3ccc(c(Cl)c3)Oc3cc2cc(c3O[C@@H]2O[C@H](CO)[C@@H](O)[C@H](O)[C@H]2O[C@H]2C[C@](C)(N)[C@H](O)[C@H](C)O2)Oc2ccc(cc2Cl)[C@H]1O [Vancomycin, reference compound]
MIC (S. aureus NCTC 8325 [1]; S. aureus (NCTC 8325), Table 3): 0.5 µg/mL (≈ 0.345 µM) | MIC (S. aureus NCTC 8325 [1]; Staphylococcus aureus, NCTC8325): 0.5 µg/mL (≈ 0.345 µM) | MIC ([2]; Staphylococcus aureus, VISA): 4 µg/mL (≈ 2.76 µM) | increase in the value of MIC ([2]; VISA compared to vancomycin-susceptible S. aureus (VSSA)): 4 fold | MIC [3]: 1 µg/mL (≈ 0.69 µM) | MIC (MRSA SCCmec VT): 1 µg/mL (≈ 0.69 µM) | MIC (MRSA ATCC 33592): 1 µg/mL (≈ 0.69 µM) | MIC (VRSA (SJC1200); Staphylococcus aureus, VRSA): 512 µg/mL (≈ 353 µM) | decrease in the susceptibility (VRSA (SJC1200); VRSA compared to VSSA): over five-hundred decrease in the susceptibility | MIC (MRSA (ATCC 43300) [4]): 1 µg/mL (≈ 0.69 µM) | MBEC (MRSA (ATCC 43300) [5]): 1024 mg/L | MBEC (MRSA (ATCC 43300) [5]; listed as vancomycin): > 1024 mg/L | fold MIC change (resistance) (S. aureus NCTC 8325 [6]): 4 fold | MIC (MRSA ATCC 49476): 1 µg/mL (≈ 0.69 µM)

CCCCCCCCCC(=O)N[C@@H](Cc1c[nH]c2ccccc12)C(=O)N[C@H](CC(N)=O)C(=O)N[C@@H](CC(=O)O)C(=O)N[C@@H]1C(=O)NCC(=O)N[C@@H](CCCN)C(=O)N[C@@H](CC(=O)O)C(=O)N[C@H](C)C(=O)N[C@@H](CC(=O)O)C(=O)NCC(=O)N[C@H](CO)C(=O)N[C@@H]([C@H](C)CC(=O)O)C(=O)N[C@@H](CC(=O)c2ccccc2N)C(=O)O[C@@H]1C [Daptomycin]
MIC (MRSA (ATCC 43300) [4]; [10]): 0.5 µg/mL (≈ 0.309 µM) | MBEC (MRSA (ATCC 43300) [5]): 1024 mg/L

O=C(Nc1cc(Cl)cc(Cl)c1)C(CCCl)C(=O)Nc1ccc(Cl)c(C(F)(F)F)c1 (stereo not drawn) [SC5035, N^1-(4-chloro-3-(trifluoromethyl)phenyl)-2-(2-chloroethyl)-N^3-(3,5-dichlorophenyl)malonamide]
MIC (S. aureus NCTC 8325 [1]; Staphylococcus aureus, MSSA NCTC 8325, Table 6, read-out: MIC): 0.25 µg/mL (≈ 0.512 µM) | hemolysis of RBC (human red blood cells): no significant hemolysis | MIC (MRSA ATCC 33592; MRSA ATCC 33592, Table 6, read-out: MIC): 0.25 µg/mL (≈ 0.512 µM) | intracellular ATP levels (S. aureus NCTC 8325 [7]): significantly dropped | propidium iodide staining (membrane integrity) (S. aureus NCTC 8325 [8]): can be stained by propidium iodide | LDH level released into culture medium (Human HT-29 cells): no significant increase in the LDH level | incorporation signal in DNA, RNA, protein and cell wall biosynthesis (S. aureus NCTC 8325 [9]): lower signal in all four macromolecule biosynthesis pathway

CC(=O)NC[C@H]1CN(c2ccc(N3CCOCC3)c(F)c2)C(=O)O1 [Linezolid]
MIC (MRSA (ATCC 43300) [4]; [10]): 1 µg/mL (≈ 2.96 µM) | MBEC (MRSA (ATCC 43300) [5]): >1024 mg/L | MBEC (MRSA (ATCC 43300) [5]; listed as linezolid): 1024 mg/L

Triton X-100 [reference compound]
propidium iodide staining (membrane integrity) (S. aureus NCTC 8325 [8]): can be stained by propidium iodide
